Where two headings read alike, the source gives them in different places.
Legend:
NF-kB = assay: Gene reporter (GR) assay, NF-kB activation after TNFα in JB6 Cl 41-5a (P+) cells; type: cell-based, murine; design: key to Gene reporter (GR) inhibition, no effect: ne: no effect; details: for IC50: TNFα 2 ng/ml, non toxic concentrations, read-out: Gene reporter (GR) inhibition IC50; for inhibition at 3 µM / inhibition at 10 µM: read-out: Gene reporter (GR) inhibition % effect at max concentration
Text: To determine if the compounds of the invention were active also in a cellular model, a gene reporter assay was established in a cell line (JB6 Cl 41-5a (P+)) know to activate Fyn kinase via an inflammatory stimuli (TNFα). GR assay measures the activation of the nuclear transcription factor NF-kB, situated down-stream the Fyn activation pathway. Products active in this analysis has to penetrate in the cell and inhibit the activation pathway of NF-kB.
The murine epithelial cell line JB6 Cl 41-5a (P+) (ATCC® Cat. #CRL-2010) was stably transfected with the pGL4.32[luc2P/NFkB-RE/Hygro] vector (Promega). Clonal selection was achieved by limiting with 80 μg/ml Hygromycin B. The clones were tested for their response to TNFα stimulus.
JB6(P+) NFkB-RE-luc2P transfected cells were used for the analysis of NF-kB activity modulation, after TNFα stimulation, by Fyn-inhibitors.
Cells were pre-treated with the different compounds for 1 h and then stimulated with 2 ng/ml TNFα for 4 h. Each tested condition was analyzed in quadruplicate.
The luciferase analysis was performed with ONE-Glo™+ToxLuciferase Reporter and Cell Viability Assay kit (Promega).

Fyn = Fyn (Homo sapiens (Human), UniProt P06241); assay: Z′-LYTE in vitro Fyn kinase activity assay; type: biochemical; details: ATP 50 μM; read-out: FYN KINASE INHIBITION IC50
Chain of Fyn (P06241 whole entry): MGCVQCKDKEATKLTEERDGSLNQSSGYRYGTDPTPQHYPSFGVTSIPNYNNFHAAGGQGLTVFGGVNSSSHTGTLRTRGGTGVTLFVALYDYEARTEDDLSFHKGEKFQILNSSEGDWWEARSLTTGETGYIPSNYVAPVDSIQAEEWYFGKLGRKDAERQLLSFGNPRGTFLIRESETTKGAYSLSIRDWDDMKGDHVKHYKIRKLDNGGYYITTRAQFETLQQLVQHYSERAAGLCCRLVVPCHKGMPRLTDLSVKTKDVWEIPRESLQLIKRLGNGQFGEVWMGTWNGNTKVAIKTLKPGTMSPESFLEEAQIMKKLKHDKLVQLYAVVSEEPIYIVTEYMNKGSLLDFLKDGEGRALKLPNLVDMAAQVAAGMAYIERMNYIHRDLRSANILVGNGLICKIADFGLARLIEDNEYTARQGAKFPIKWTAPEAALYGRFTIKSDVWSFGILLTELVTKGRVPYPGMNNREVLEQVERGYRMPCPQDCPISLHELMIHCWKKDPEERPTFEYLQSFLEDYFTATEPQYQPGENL
Method: The Fyn kinase inhibitory activity of representative examples of compounds of Formula (1) was evaluated by Z′-LYTE™ Kinase Assay Platform (Invitrogen). Compounds were evaluated towards active Fyn (full length active, molecular weight 87.1 kDa; Invitrogen). […] Samples representing the 0% inhibition (or total enzymatic activity) were in the presence of compound diluent (1% DMSO final in Reaction Buffer 50 mMHepes, 10 mM MgCl2, 1 mM EGTA, 0.01% Brij-35, pH 7.5). The kinase reaction was carried out in a total volume of 10 μl, for 60 minutes at 25° C. The 0% Phosphorylation (i.e. no ATP) and 100% Phosphorylation Assay Controls, included in each plate, allowed to calculate the percent phosphorylation achieved in the specific reaction well. Results are expressed as percentage of inhibition and the IC50 values were calculated by non-linear curve fitting using GraphPad™ Prism software (version 6 for Windows).

VEGFR2 = VEGFR2 (Homo sapiens (Human), UniProt P35968); assay: In vitro VEGFR2 kinase activity assay (Eurofins Cerep); type: biochemical; details: read-out: VEGFR2 KINASE INHIBITION IC50
Chain of VEGFR2 (P35968 20-1356): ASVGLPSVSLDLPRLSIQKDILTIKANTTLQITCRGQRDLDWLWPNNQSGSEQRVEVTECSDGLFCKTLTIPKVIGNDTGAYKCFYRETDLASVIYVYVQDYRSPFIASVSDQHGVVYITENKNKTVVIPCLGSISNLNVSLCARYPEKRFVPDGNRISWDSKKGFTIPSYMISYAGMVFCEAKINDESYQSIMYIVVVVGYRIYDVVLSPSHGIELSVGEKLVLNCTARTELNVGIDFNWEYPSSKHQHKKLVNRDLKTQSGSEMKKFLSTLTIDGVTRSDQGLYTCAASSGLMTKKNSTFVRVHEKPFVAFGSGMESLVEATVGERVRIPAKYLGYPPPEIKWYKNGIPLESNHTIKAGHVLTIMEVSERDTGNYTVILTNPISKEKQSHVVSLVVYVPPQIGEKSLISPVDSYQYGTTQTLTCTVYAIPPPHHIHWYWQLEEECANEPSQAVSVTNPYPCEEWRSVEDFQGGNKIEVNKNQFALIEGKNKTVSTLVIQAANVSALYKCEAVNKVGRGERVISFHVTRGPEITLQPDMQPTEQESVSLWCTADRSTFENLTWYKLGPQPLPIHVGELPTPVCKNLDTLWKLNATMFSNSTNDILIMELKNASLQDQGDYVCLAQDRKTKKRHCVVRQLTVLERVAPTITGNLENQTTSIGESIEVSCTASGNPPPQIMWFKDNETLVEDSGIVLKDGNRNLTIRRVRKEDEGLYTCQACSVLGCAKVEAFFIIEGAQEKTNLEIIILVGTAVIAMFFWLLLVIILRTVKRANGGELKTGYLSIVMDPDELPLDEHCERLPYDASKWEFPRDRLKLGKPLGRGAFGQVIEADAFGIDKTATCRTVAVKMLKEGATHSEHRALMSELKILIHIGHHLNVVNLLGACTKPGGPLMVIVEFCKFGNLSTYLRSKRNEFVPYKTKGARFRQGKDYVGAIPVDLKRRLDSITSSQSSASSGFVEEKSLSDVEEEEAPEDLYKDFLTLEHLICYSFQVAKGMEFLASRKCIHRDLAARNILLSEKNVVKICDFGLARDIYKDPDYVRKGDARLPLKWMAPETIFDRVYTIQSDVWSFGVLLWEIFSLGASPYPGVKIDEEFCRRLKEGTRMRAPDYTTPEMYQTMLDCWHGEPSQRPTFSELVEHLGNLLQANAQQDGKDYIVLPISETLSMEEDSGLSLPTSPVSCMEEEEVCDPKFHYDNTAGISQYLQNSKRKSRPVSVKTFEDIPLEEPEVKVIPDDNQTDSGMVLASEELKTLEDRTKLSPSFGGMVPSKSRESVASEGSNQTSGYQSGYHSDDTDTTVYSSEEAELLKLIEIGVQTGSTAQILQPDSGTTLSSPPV
Method: The VEGFR2 kinase inhibitory activity of representative examples of compounds of Formula (I) assays was evaluated in Eurofins Cerep (France). The concentration range of the inhibitors under investigation was from 10^−8 M up to 10^−5 M final concentration. Some compounds were re-tested in a concentration-range starting from 10^−9 M. The results are expressed as a percent of control activity (in the absence of test compound) and the IC50 values were determined by non-linear regression analysis of the inhibition/concentration curves generated with mean replicate values.

SMILES | IC50 (NF-kB; Mus musculus, JB6 Cl 41-5a) [nM] | IC50 (Fyn) [nM] | IC50 (VEGFR2) [nM] | further results
Cc1nc(Nc2cc(CCc3ccc(F)c(NC(=O)c4cccc(C(F)(F)F)c4)c3)n[nH]2)cc(N2CCOCC2)n1 [Compound 43, N-(2-fluoro-5-(2-(5-((2-methyl-6-morpholinopyrimidin-4-yl)amino)-1H-pyrazol-3-yl)ethyl)phenyl)-3-(trifluoromethyl)benzamide] | 2440 | 19 | 10 | –
Cc1ccc(NC(=O)NC2CCC(C)(C)CC2)cc1CCc1cc(NC(=O)c2ccc(C3CCN(C)CC3)cc2)[nH]n1 [Compound 25, N-(3-(5-(3-(4,4-dimethylcyclohexyl)ureido)-2-methylphenethyl)-1H-pyrazol-5-yl)-4-(1-methylpiperidin-4-yl)benzamide] | – | 3 | – | IC50 (NF-kB): 1420 nM
Cc1ccc(NC(=O)NC2CCCC2)cc1CCc1cc(NC(=O)c2ccc(N3CCN(C)CC3)cc2)[nH]n1 [Compound 24, N-(3-(5-(3-cyclopentylureido)-2-methylphenethyl)-1H-pyrazol-5-yl)-4-(4-methylpiperazin-1-yl)benzamide] | 2330 | 2 | – | –
Cc1nc(CN2CCCC2)cc(Nc2cc(CCc3cc(NC(=O)c4cccc(C(F)(F)F)c4)ccc3F)[nH]n2)n1 [Compound 28, N-(4-fluoro-3-(2-(3-((2-methyl-6-(pyrrolidin-1-ylmethyl)pyrimidin-4-yl)amino)-1H-pyrazol-5-yl)ethyl)phenyl)-3-(trifluoromethyl)benzamide] | – | 17 | < 10 | –
Cc1ccc(NC(=O)N2CCC3(CCC3)C2)cc1CCc1cc(Nc2nccnc2C)[nH]n1 [Compound 20, N-(4-methyl-3-(2-(5-((3-methylpyrazin-2-yl)amino)-1H-pyrazol-3-yl)ethyl)phenyl)-6-azaspiro[3.4]octane-6-carboxamide] | – | 18 | – | inhibition at 3 µM (NF-kB; Mus musculus, JB6 Cl 41-5a): 45%
CCC1(CC)CCN(C(=O)Nc2ccc(C)c(CCc3cc(Nc4cnccn4)[nH]n3)c2)C1 [Compound 22, 3,3-diethyl-N-(4-methyl-3-(2-(5-(pyrazin-2-ylamino)-1H-pyrazol-3-yl)ethyl)phenyl)pyrrolidine-1-carboxamide] | 1140 | 7 | – | –
CCC1(CC)CCN(C(=O)Nc2ccc(C)c(CCc3cc(Nc4nccnc4C)[nH]n3)c2)C1 [Compound 21, 3,3-diethyl-N-(4-methyl-3-(2-(5-((3-methylpyrazin-2-yl)amino)-1H-pyrazol-3-yl)ethyl)phenyl)pyrrolidine-1-carboxamide] | – | 5 | – | inhibition at 3 µM (NF-kB; Mus musculus, JB6 Cl 41-5a): 37%
Cc1ccc(NC(=O)c2ccnc(C(C)(C)C#N)c2)cc1CCc1cc(Nc2ncccc2C)[nH]n1 [Compound 36, 2-(2-cyanopropan-2-yl)-N-(4-methyl-3-(2-(5-((3-methylpyridin-2-yl)amino)-1H-pyrazol-3-yl)ethyl)phenyl)isonicotinamide] | 494 | 32 | < 10 | –
Cc1nc(CN2CCOCC2)cc(Nc2cc(CCc3cc(NC(=O)c4cccc(C(F)(F)F)c4)ccc3F)[nH]n2)n1 [Compound 26, N-(4-fluoro-3-(2-(3-((2-methyl-6-(morpholinomethyl)pyrimidin-4-yl)amino)-1H-pyrazol-5-yl)ethyl)phenyl)-3-(trifluoromethyl)benzamide] | – | 12 | < 10 | inhibition at 3 µM (NF-kB; Mus musculus, JB6 Cl 41-5a): 50%
Cc1nc(Nc2cc(CCc3cc(NC(=O)c4cccc(C(F)(F)F)c4)ccc3F)[nH]n2)cc(-c2cnn(CCO)c2)n1 [Compound 42, N-(4-fluoro-3-(2-(3-((6-(1-(2-hydroxyethyl)-1H-pyrazol-4-yl)-2-methylpyrimidin-4-yl)amino)-1H-pyrazol-5-yl)ethyl)phenyl)-3-(trifluoromethyl)benzamide] | – | 13 | 20 | inhibition at 10 µM (NF-kB; Mus musculus, JB6 Cl 41-5a): 56%
Cc1nc(C#N)cc(Nc2cc(CCc3cc(NC(=O)N4CCC5(CCCC5)CC4)ccc3C)n[nH]2)n1 [Compound 38, N-(3-(2-(5-((6-cyano-2-methylpyrimidin-4-yl)amino)-1H-pyrazol-3-yl)ethyl)-4-methylphenyl)-8-azaspiro [4.5] decane-8-carboxamide] | – | 2 | – | inhibition at 10 µM (NF-kB; Mus musculus, JB6 Cl 41-5a): 25%
Cc1ccc(NC(=O)NC2CCC(C)(C)CC2)cc1CCc1cc(NC(=O)c2ccc(OC3CN(C(C)C)C3)cc2)[nH]n1 [Compound 23, N-(3-(5-(3-(4,4-dimethylcyclohexyl)ureido)-2-methylphenethyl)-1H-pyrazol-5-yl)-4-((1-isopropylazetidin-3-yl)oxy)benzamide] | 1440 | 5 | – | –
Cc1nc(Nc2cc(CCc3cc(NC(=O)c4cccc(C(F)(F)F)c4)ccc3F)n[nH]2)cc(N2CC[C@H](N(C)C)C2)n1 [Compound 32, (S)-N-(3-(2-(3-((6-(3-(dimethylamino)pyrrolidin-1-yl)-2-methylpyrimidin-4-yl)amino)-1H-pyrazol-5-yl)ethyl)-4-fluorophenyl)-3-(trifluoromethyl)benzamide] | – | 9 | < 10 | inhibition at 3 µM (NF-kB; Mus musculus, JB6 Cl 41-5a): 29%
Cc1ccc(NC(=O)c2cccc(C(F)(F)F)c2)cc1CCc1cc(NC(=O)c2ccccn2)[nH]n1 [Compound 18, N-(5-(2-methyl-5-(3-(trifluoromethyl)benzamido)phenethyl)-1H-pyrazol-3-yl)picolinamide] | 974 | 15 | 16 | –
O=C(Nc1ccc(F)c(CCc2cc(Nc3cc4c(cn3)CN(CCO)C4)[nH]n2)c1)c1cccc(C(F)(F)F)c1 [Compound 10, N-(4-fluoro-3-(2-(5-((2-(2-hydroxyethyl)-2,3-dihydro-1H-pyrrolo[3,4-c]pyridin-6-yl)amino)-1H-pyrazol-3-yl)ethyl)phenyl)-3-(trifluoromethyl) benzamide] | 2000 | 4 | < 10 | –
Cc1ccc(NC(=O)c2ccnc(C(C)(C)C#N)c2)cc1CCc1cnc(Nc2cnccn2)s1 [Compound 50, 2-(2-cyanopropan-2-yl)-N-(4-methyl-3-(2-(2-(pyrazin-2-ylamino)thiazol-5-yl)ethyl)phenyl)isonicotinamide] | – | 8 | – | inhibition at 3 µM (NF-kB; Mus musculus, JB6 Cl 41-5a): 86%
Cc1ccc(NC(=O)c2cc(C(C)(C)C#N)ccn2)cc1CCc1cc(Nc2cnccn2)[nH]n1 [Compound 41, 4-(2-cyanopropan-2-yl)-N-(4-methyl-3-(2-(5-(pyrazin-2-ylamino)-1H-pyrazol-3-yl)ethyl)phenyl)picolinamide] | 327 | 8 | < 10 | –
Cc1nc(CN2C[C@@H](C)O[C@@H](C)C2)cc(Nc2cc(CCc3cc(NC(=O)c4cccc(C(F)(F)F)c4)ccc3F)[nH]n2)n1 [Compound 27, N-(3-(2-(3-((6-(((2S,6R)-2,6-dimethylmorpholino)methyl)-2-methylpyrimidin-4-yl)amino)-1H-pyrazol-5-yl)ethyl)-4-fluorophenyl)-3-(trifluoromethyl)benzamide] | – | 10 | 12 | –
CN(C)Cc1ccc(C(=O)Nc2cccc(CCc3cc(NC(=O)c4ccc(N5CCOCC5)cc4)[nH]n3)c2)cc1 [Compound 47, 4-((dimethylamino)methyl)-N-(3-(2-(5-(4-morpholinobenzamido)-1H-pyrazol-3-yl)ethyl)phenyl)benzamide] | – | 10 | 10 | Gene reporter (GR) inhibition, no effect (NF-kB): ne
Cc1nc(Nc2cc(CCc3cc(NC(=O)c4cccc(C(F)(F)F)c4)ccc3F)n[nH]2)cc(N2CCN(CCO)CC2)n1 [Compound 30, N-(4-fluoro-3-(2-(3-((6-(4-(2-hydroxyethyl)piperazin-1-yl)-2-methylpyrimidin-4-yl)amino)-1H-pyrazol-5-yl)ethyl)phenyl)-3-(trifluoromethyl) benzamide] | – | – | – | Gene reporter (GR) inhibition, no effect (NF-kB): ne
Cc1nc(Nc2cc(CCc3cc(NC(=O)c4cccc(C(F)(F)F)c4)ccc3F)n[nH]2)cc(N2CC(O)C2)n1 [Compound 31, N-(4-fluoro-3-(2-(3-((6-(3-hydroxyazetidin-1-yl)-2-methylpyrimidin-4-yl)amino)-1H-pyrazol-5-yl)ethyl)phenyl)-3-(trifluoromethyl)benzamide] | – | – | – | inhibition at 10 µM (NF-kB; Mus musculus, JB6 Cl 41-5a): 47%
